We go through 20 molecules from patent publication US11021470B2, “2-substituted quinazoline compounds comprising a substituted heterocyclic group and methods of use thereof” (Araxes Pharma LLC, priority 2015, dated 2021).

This test addresses T1, KRAS G12C 1-169, his-tagged protein, GDP-loaded (Homo sapiens, UniProt P01116, G12C).
T1 construct: KRAS G12C 1-169, his-tagged protein, GDP-loaded
In words: KRAS G12C covalent binding (% modification) by mass spectrometry, ten or three minute incubation. The following applies: covalent binding to KRAS G12C, % modification after a three minute incubation period. A digest of the protocol:
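GDP-loaded protein in 20 mM Hepes, 150 mM NaCl, 1 mM MgCl2 was incubated with compound (final 100, 30 or 10 μM; 2% DMSO) at room temperature, then quenched with formic acid. Intact-protein LC-MS with charge-envelope deconvolution gave masses and intensities of modified and unmodified species.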
For `C=CC(=O)N1C[C@H](C)N(c2nc(N3CC(N(C)C)C3)nc3c(F)c(-c4cc(O)cc5ccccc45)c(C(F)(F)F)cc23)C[C@H]1C` [Compound 178, 1-((2R,5S)-4-(2-(3-(dimethylamino)azetidin-1-yl)-8-fluoro-7-(3-hydroxynaphthalen-1-yl)-6-(trifluoromethyl)quinazolin-4-yl)-2,5-dimethylpiperazin-1-yl)prop-2-en-1-one], the Binding % result is reported as “+++ (+++ indicates binding activity greater than 90%)”.
Take `C=CC(=O)N1C[C@H](C)N(c2nc(N3CC(N(C)C)C3)nc3c(F)c(-c4c(C)ccc5cn[nH]c45)c(Cl)cc23)C[C@H]1C` [Compound 187, 1-((2R,5S)-4-(6-chloro-2-(3-(dimethylamino)azetidin-1-yl)-8-fluoro-7-(6-methyl-1H-indazol-7-yl)quinazolin-4-yl)-2,5-dimethylpiperazin-1-yl)prop-2-en-1-one]: the Binding % result is “+++ (+++ indicates binding activity greater than 90%)”.
In the case of `[2H]C([2H])([2H])N(C1CN(c2nc(N3C[C@@H](C)N(C(=O)C=C)C[C@@H]3C)c3cc(Cl)c(-c4c(O)cccc4F)c(F)c3n2)C1)C([2H])([2H])[2H]` [Compound 196, 1-((2R,5S)-4-(2-(3-(bis(trideuteromethyl)amino)azetidin-1-yl)-6-chloro-8-fluoro-7-(2-fluoro-6-hydroxyphenyl)quinazolin-4-yl)-2,5-dimethylpiperazin-1-yl)prop-2-en-1-one] it was “+++ (+++ indicates binding activity greater than 90%)”; in that of `C=CC(=O)N1C[C@H](C)N(c2nc(N3CC(N(C)C)C3)nc3c(F)c(-c4c(O)cccc4F)c(C(F)(F)F)cc23)C[C@H]1C` [Compound 206, 1-((2R,5S)-4-(2-(3-(dimethylamino)azetidin-1-yl)-8-fluoro-7-(2-fluoro-6-hydroxyphenyl)-6-(trifluoromethyl)quinazolin-4-yl)-2,5-dimethylpiperazin-1-yl)prop-2-en-1-one], “+++ (+++ indicates binding activity greater than 90%)”; in that of `C=CC(=O)N1C[C@H](C)N(c2nc(OC3CCN(C)CC3)nc3c(F)c(-c4cc(O)cc5ccccc45)c(Cl)cc23)C[C@H]1C` [Compound 245, 1-((2R,5S)-4-(6-chloro-8-fluoro-7-(3-hvdroxynaphthalen-1-yl)-2-((1-methylpiperidin-4-yl)oxy)quinazolin-4-yl)-2,5-dimethylpiperazin-1-yl)prop-2-en-1-one], “+++ (+++ indicates binding activity greater than 90%)”.
Next, `C=CC(=O)N1C[C@H](C)N(c2nc(N3CC(N(C)C)C3)nc3c(F)c(-c4c(C)ccc5c(C)n[nH]c45)c(Cl)cc23)C[C@H]1C` [Compound 246, 1-((2R,5S)-4-(6-chloro-7-(3,6-dimethyl-1H-indazol-7-yl)-2-(3-(dimethylamino)azetidin-1-yl)-8-fluoroquinazolin-4-yl)-2,5-dimethylpiperazin-1-yl)prop-2-en-1-one]: “+ (+ indicates binding activity greater than 0% and up to 50%)”; `C=CC(=O)N1C[C@H](C)N(c2nc(OCCCN3CC(F)(F)C3)nc3c(F)c(-c4cc(O)cc5ccccc45)c(Cl)cc23)C[C@H]1C` [Compound 247, 1-((2R,5S)-4-(6-chloro-2-(3-(3,3-difluoroazetidin-1-yl)propoxy)-8-fluoro-7-(3-hydroxynaphthalen-1-yl)quinazolin-4-yl)-2,5-dimethylpiperazin-1-yl)prop-2-en-1-one]: “+ (+ indicates binding activity greater than 0% and up to 50%)”; `C=CC(=O)N1C[C@H](C)N(c2nc(OCCCN3CC(F)(F)C3)nc3c(F)c(-c4c(C)ccc5[nH]ncc45)c(Cl)cc23)C[C@H]1C` [Compound 248, 1-((2R,5S)-4-(6-chloro-2-(3-(3,3-difluoroazetidin-1-yl)propoxy)-8-fluoro-7-(5-methyl-1H-indazol-4-yl)quinazolin-4-yl)-2,5-dimethylpiperazin-1-yl)prop-2-en-1-one]: “++ (++ indicates binding activity from 50 to 90%)”.
In the case of `C=CC(=O)N1C[C@H](C)N(c2nc(OCCCN3CC(F)(F)C3)nc3c(F)c(-c4c(O)cccc4F)c(Cl)cc23)C[C@H]1C` [Compound 250, 1-((2R,5S)-4-(6-chloro-2-(3-(3,3-difluoroazetidin-1-yl)propoxy)-8-fluoro-7-(2-fluoro-6-hydroxyphenyl)quinazolin-4-yl)-2,5-dimethylpiperazin-1-yl)prop-2-en-1-one] it was “+++ (+++ indicates binding activity greater than 90%)”; in that of `C=CC(=O)N1C[C@H](C)N(c2nc(N3CC(N(C)C)C3)nc3c(Cl)c(-c4c(O)cccc4F)c(Cl)cc23)C[C@H]1C` [Compound 251, 1-((2R,5S)-4-(6,8-dichloro-2-(3-(dimethylamino)azetidin-1-yl)-7-(2-fluoro-6-hydroxyphenyl)quinazolin-4-yl)-2,5-dimethylpiperazin-1-yl)prop-2-en-1-one], “++ (++ indicates binding activity from 50 to 90%)”; in that of `C=CC(=O)N1C[C@H](C)N(c2nc(N3CC(N(C)C)C3)nc3c(F)c(-c4c(C)ccc5[nH]nc(C)c45)c(Cl)cc23)C[C@H]1C` [Compound 252, 1-((2R,5S)-4-(6-chloro-7-(3,5-dimethyl-1H-indazol-4-yl)-2-(3-(dimethylamino)azetidin-1-yl)-8-fluoroquinazolin-4-yl)-2,5-dimethylpiperazin-1-yl)prop-2-en-1-one], “+++ (+++ indicates binding activity greater than 90%)”.
For the molecule `C=CC(=O)N1C[C@H](C)N(c2nc(OCCO)nc3c(F)c(-c4c(O)cccc4F)c(Cl)cc23)C[C@H]1C` [Compound 253, 1-((2R,5S)-4-(6-chloro-8-fluoro-7-(2-fluoro-6-hydroxyphenyl)-2-(2-hydroxyethoxy)quinazolin-4-yl)-2,5-dimethylpiperazin-1-yl)prop-2-en-1-one], the Binding % result is “++ (++ indicates binding activity from 50 to 90%)”.
In the case of `C=CC(=O)N1C[C@H](C)N(c2nc(OCCn3cnc4ccccc43)nc3c(F)c(-c4c(O)cccc4F)c(Cl)cc23)C[C@H]1C` [Compound 254, 1-((2R,5S)-4-(2-(2-(1H-benzo[d]imidazol-1-yl)ethoxy)-6-chloro-8-fluoro-7-(2-fluoro-6-hydroxyphenyl)quinazolin-4-yl)-2,5-dimethylpiperazin-1-yl)prop-2-en-1-one] it was “+ (+ indicates binding activity greater than 0% and up to 50%)”.
Next, `C=CC(=O)N1C[C@H](C)N(c2nc(N3CC(N(C)C)C3)nc3c(F)c(-c4c(F)ccc(Cl)c4O)c(Cl)cc23)C[C@H]1C` [Compound 260, 1-((2R,5S)-4-(6-chloro-7-(3-chloro-6-fluoro-2-hydroxyphenyl)-2-(3-(dimethylamino)azetidin-1-yl)-8-fluoroquinazolin-4-yl)-2,5-dimethylpiperazin-1-yl)prop-2-en-1-one]: “++ (++ indicates binding activity from 50 to 90%)”.
For `C=CC(=O)N1C[C@H](C)N(c2nc(N3CC(N(C)C)C3)nc3c(F)c(-c4c(F)ccc5cn[nH]c45)c(Cl)cc23)C[C@H]1C` [Compound 261, 1-((2R,5S)-4-(6-chloro-2-(3-(dimethylamino)azetidin-1-yl)-8-fluoro-7-(6-fluoro-1H-indazol-7-yl)quinazolin-4-yl)-2,5-dimethylpiperazin-1-yl)prop-2-en-1-one], the Binding % entry is on record as “+++ (+++ indicates binding activity greater than 90%)”.
Next, `C=CC(=O)N1C[C@H](C)N(c2nc(OCCn3ccc4cccnc43)nc3c(F)c(-c4c(O)cccc4F)c(Cl)cc23)C[C@H]1C` [Compound 263, 1-((2R,5S)-4-(2-(2-(1H-pyrrolo[2,3-b]pyridin-1-yl)ethoxy)-6-chloro-8-fluoro-7-(2-fluoro-6-hydroxyphenyl)quinazolin-4-yl)-2,5-dimethylpiperazin-1-yl)prop-2-en-1-one]: “+ (+ indicates binding activity greater than 0% and up to 50%)”.
In the case of `C=CC(=O)N1C[C@H](C)N(c2nc(N3CC(N(C)C)C3)nc3c(F)c(-c4c(C)ccc5[nH]ccc45)c(Cl)cc23)C[C@H]1C` [Compound 266, 1-((2R,5S)-4-(6-chloro-2-(3-(dimethylamino)azetidin-1-yl)-8-fluoro-7-(5-methyl-1H-indol-4-yl)quinazolin-4-yl)-2,5-dimethylpiperazin-1-yl)prop-2-en-1-one] it was “+++ (+++ indicates binding activity greater than 90%)”.
With `C=CC(=O)N1C[C@H](C)N(c2nc(N3CC(N(C)C)C3)nc3c(F)c(-c4c(C)ccc5[nH]cnc45)c(Cl)cc23)C[C@H]1C` [Compound 273, 1-((2R,5S)-4-(6-chloro-2-(3-(dimethylamino)azetidin-1-yl)-8-fluoro-7-(5-methyl-1H-benzo[d]imidazol-4-yl)quinazolin-4-yl)-2,5-dimethylpiperazin-1-yl)prop-2-en-1-one], the Binding % entry is on record as “+++ (+++ indicates binding activity greater than 90%)”.
In the case of `C=CC(=O)N1C[C@H](C)N(c2nc(OCC(C)(C)N)nc3c(F)c(-c4c(O)cccc4F)c(Cl)cc23)C[C@H]1C` [Compound 274, 1-((2R,5S)-4-(2-(2-amino-2-methylpropoxy)-6-chloro-8-fluoro-7-(2-fluoro-6-hydroxyphenyl)quinazolin-4-yl)-2,5-dimethylpiperazin-1-yl)prop-2-en-1-one] it was “+ (+ indicates binding activity greater than 0% and up to 50%)”.
With `C=CC(=O)N1C[C@H](C)N(c2nc(OCCn3ccnc3C3CC3)nc3c(F)c(-c4c(C)ccc5[nH]ncc45)c(Cl)cc23)C[C@H]1C` [Compound 276, 1-((2R,5S)-4-(6-chloro-2-(2-(2-cyclopropyl-1H-imidazol-1-yl)ethoxy)-8-fluoro-7-(5-methyl-1H-indazol-4-yl)quinazolin-4-yl)-2,5-dimethylpiperazin-1-yl)prop-2-en-1-one], the Binding % result is reported as “++ (++ indicates binding activity from 50 to 90%)”.
